Test [1] concerns the target T1, hyaluronidase from bovine testes type I-S (Bos taurus, UniProt F1MTV1).
T1 construct: gene SPAM1; native commercial preparation from bovine testes (Sigma-Aldrich, type I-S)
T1 sequence (F1MTV1 36-553): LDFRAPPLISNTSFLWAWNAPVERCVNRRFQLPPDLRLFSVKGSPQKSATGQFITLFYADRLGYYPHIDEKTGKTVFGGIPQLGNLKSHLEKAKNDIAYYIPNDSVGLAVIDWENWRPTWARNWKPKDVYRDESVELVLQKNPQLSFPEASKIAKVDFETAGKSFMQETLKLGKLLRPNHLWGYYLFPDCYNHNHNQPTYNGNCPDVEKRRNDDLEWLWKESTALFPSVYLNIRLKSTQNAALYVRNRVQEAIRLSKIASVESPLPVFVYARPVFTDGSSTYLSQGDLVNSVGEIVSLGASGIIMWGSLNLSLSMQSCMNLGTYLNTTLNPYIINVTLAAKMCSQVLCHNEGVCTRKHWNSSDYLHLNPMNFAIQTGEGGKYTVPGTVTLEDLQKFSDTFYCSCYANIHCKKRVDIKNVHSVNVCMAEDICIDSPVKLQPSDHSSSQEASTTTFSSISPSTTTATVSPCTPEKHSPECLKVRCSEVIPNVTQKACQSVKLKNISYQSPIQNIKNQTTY
The test can be described thus: turbidimetric hyaluronidase inhibition assay. It counts as biochemical. To be noted: substrate hyaluronic acid 0.03%, with bovine serum albumin 0.1%; per mL of the enzyme solution; read-out: IC50 (μg/mL) ^a. The source says: turbidimetric hyaluronidase inhibition assay on hyaluronidase from bovine testes type I-S

For test [2], the target named is T2, thrombin (Bos taurus, UniProt P00735).
T2 construct: gene F2; Biomed Lublin thrombin is usually of bovine origin, human (P00734) not excluded
The test can be described thus: chromogenic amidolytic assay (S-2238), […] nm. The test is classed as biochemical. The settings on record: read-out: % inhibition at 50 μg/mL.

Where only a bound is given, the exact number is not on record here.

Turning to `O=C(/C=C/c1ccc(O)c(O)c1)O[C@@H]1C[C@](O)(C(=O)O)C[C@@H](O)[C@H]1O` [CHA, chlorogenic acid], the IC50 in test [1] was more than 339 µM.

`O=c1c(O[C@@H]2O[C@H](CO)[C@@H](O)[C@H](O)[C@H]2O)c(-c2ccc(O)c(O)c2)oc2cc(O)cc(O)c12` [IQ, isoquercitrin]: the IC50 in test [1] is more than 431 µM.

Regarding `Oc1cc(O)c2c(c1)O[C@H](c1ccc(O)c(O)c1)[C@H](O)[C@H]2c1c(O)cc(O)c2c1O[C@H](c1ccc(O)c(O)c1)[C@H](O)C2` [PB2, procyanidin B2], in test [2], the inhibition at 50 µg/mL was 27%. The IC50 in test [1] is more than 207 µM.

For the compound `O=c1c(O[C@@H]2O[C@H](CO)[C@@H](O)[C@H](O)[C@H]2O[C@@H]2O[C@H](CO)[C@@H](O)[C@H](O)[C@H]2O)c(-c2ccc(O)c(O)c2)oc2cc(O)cc(O)c12` [SQ, quercetin 3-O-β-sophoroside], the IC50 in test [1] was more than 319 µM.

The values above are taken from PMC8698768, “The Effects of Sorbus aucuparia L. Fruit Extracts on Oxidative/Nitrative Modifications of Human Fibrinogen, Impact on Enzymatic Properties of Thrombin, and Hyaluronidase Activity In Vitro” (Antioxidants, 2021).
